Where a SMILES comes first, the peptide text is derived from it. Bridges are numbered along the chain shown (N, C = ends). [ ]: non-standard residue; d: D form. The star is where a group is joined. ξ: configuration not given here. Bip = N[C@@H](Cc1ccc(-c2ccccc2)cc1)C(=O)O; Phe(3-Me) = Cc1cccc(C[C@H](N)C(=O)O)c1; 4Pal = N[C@@H](Cc1ccncc1)C(=O)O; Cha = N[C@@H](CC1CCCCC1)C(=O)O; Cit = NC(=O)NCCC[C@H](N)C(=O)O; Carboxymethyl = O=C(O)C*; NMeA = CN[C@@H](C)C(=O)O; Orn = NCCC[C@H](N)C(=O)O; Aun = NCCCCCCCCCCC(=O)O; Dab = NCC[C@H](N)C(=O)O; Dap = NC[C@H](N)C(=O)O; AEEA = NCCOCCOCC(=O)O; ξV = CC(C)C(N)C(=O)O
The compounds below were run against T1, PD-1/PD-L1 interaction (PE-labeled human PD-L1-Ig binding to Jurkat cell line over-expressing human PD-1) (Homo sapiens, UniProt Q15116) (assay: Jurkat-PD-1 Cell Binding High-Content Screening Assay (CBA)). Details: Jurkat-hPD-1 cells, PE-labeled PD-L1-Ig 20 nM final; read-out: Jurkat HPD1 PDL1 IC50.
T1 construct: expressed in transfected cells; host or cells: Jurkat
In short: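 Binding of 20 nM (final) PE-tagged PD-L1-Ig to compound-pretreated Jurkat-hPD-1 cells was measured by high-content imaging after 1 h. Pretreatment ran 2 h at 37 °C in DMEM with 10% fetal calf serum.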

T1 sequence (Q15116 25-288): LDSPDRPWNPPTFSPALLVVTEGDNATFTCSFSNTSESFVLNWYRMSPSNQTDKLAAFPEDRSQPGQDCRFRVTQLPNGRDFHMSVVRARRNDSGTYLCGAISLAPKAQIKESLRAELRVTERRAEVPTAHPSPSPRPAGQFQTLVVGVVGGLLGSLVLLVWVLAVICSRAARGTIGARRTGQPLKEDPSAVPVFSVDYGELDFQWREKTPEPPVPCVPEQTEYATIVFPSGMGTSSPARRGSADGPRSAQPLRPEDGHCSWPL

IC50 [µM] | Structure (SMILES)
0.0422 | CC(C)C[C@H]1NC(=O)[C@H](C)N(C)C(=O)[C@H](CCCNC(N)=O)NC(=O)[C@H](Cc2ccc(-c3ccccc3)cc2)NC(=O)[C@H](Cc2ccc(O)cc2)NC(=O)[C@H](Cc2c[nH]c3ccccc23)NC(=O)[C@H](CC(=O)O)NC(=O)[C@H](Cc2ccc(OCC(=O)O)cc2)NC(=O)[C@H](CCCNC(=N)N)NC(=O)CSC[C@@H](C(=O)N[C@@H](CCN)C(=O)NCCCCCCCCCCC(=O)O)NC(=O)[C@H]([C@@H](C)O)NC(=O)[C@H](C(C)C)NC(=O)[C@H](CC2CCCCC2)NC(=O)[C@H](CCN)NC1=O [Example 1354] ({CH2CO}-RY(Carboxymethyl)DWY[Bip][Cit][NMeA][dL][Dab][Cha]VTC[Dab][Aun]-OH; thioether N-14)
0.0051 | Cc1cccc(C[C@@H]2NC(=O)[C@H](CC(=O)O)NC(=O)[C@H](Cc3ccc(OCC(=O)O)cc3)NC(=O)[C@H](CCCNC(=N)N)NC(=O)CSC[C@@H](C(=O)N[C@@H](CCN)C(=O)NCCCCCCCCCCC(=O)O)NC(=O)[C@H]([C@@H](C)O)NC(=O)[C@H](C(C)C)NC(=O)[C@H](CC3CCCCC3)NC(=O)[C@H](CCN)NC(=O)[C@@H](CC(C)C)NC(=O)[C@H](C)N(C)C(=O)[C@H](CCCNC(N)=O)NC(=O)[C@H](Cc3ccc(-c4ccccc4)cc3)NC(=O)[C@H](Cc3ccc(O)cc3)NC2=O)c1 [Example 1355] ({CH2CO}-RY(Carboxymethyl)D[Phe(3-Me)]Y[Bip][Cit][NMeA][dL][Dab][Cha]VTC[Dab][Aun]-OH; thioether N-14)
0.0146 | Cc1cccc(C[C@@H]2NC(=O)[C@H](CC(=O)O)NC(=O)[C@H](Cc3ccc(OCC(=O)O)cc3)NC(=O)[C@H](CN)NC(=O)CSC[C@@H](C(=O)N[C@@H](CCN)C(=O)NCCCCCCCCCCC(=O)O)NC(=O)[C@H]([C@@H](C)O)NC(=O)[C@H](C(C)C)NC(=O)[C@H](CC3CCCCC3)NC(=O)[C@H](CCN)NC(=O)[C@@H](CC(C)C)NC(=O)[C@H](C)N(C)C(=O)[C@H](CCCNC(N)=O)NC(=O)[C@H](Cc3ccc(-c4ccccc4)cc3)NC(=O)C(C(C)C)NC2=O)c1 (stereo partly drawn) [Example 1356] ({CH2CO}-[Dap]Y(Carboxymethyl)D[Phe(3-Me)][ξV][Bip][Cit][NMeA][dL][Dab][Cha]VTC[Dab][Aun]-OH; thioether N-14)
0.0205 | Cc1cccc(C[C@@H]2NC(=O)[C@H](CC(=O)O)NC(=O)[C@H](Cc3ccncc3)NC(=O)[C@H](Cc3ccc(OCC(=O)O)cc3)NC(=O)CSC[C@@H](C(=O)N[C@@H](CCN)C(=O)NCCOCCOCC(=O)NCCCCCCCCCCC(=O)O)NC(=O)[C@H]([C@@H](C)O)NC(=O)[C@H](C(C)C)NC(=O)[C@H](CC3CCCCC3)NC(=O)[C@H](CC(N)=O)NC(=O)[C@@H](CC(C)C)NC(=O)[C@H](C)N(C)C(=O)[C@H](Cc3ccc(OCC(=O)O)cc3)NC(=O)[C@H](Cc3ccc(-c4ccccc4)cc3)NC(=O)[C@H](Cc3ccc(OCC(=O)O)cc3)NC2=O)c1 [Example 1357] ({CH2CO}-Y(Carboxymethyl)[4Pal]D[Phe(3-Me)]Y(Carboxymethyl)[Bip]Y(Carboxymethyl)[NMeA][dL]N[Cha]VTC[Dab][AEEA][Aun]-OH; thioether N-14)
0.0456 | Cc1cccc(C[C@@H]2NC(=O)[C@H](CC(=O)O)NC(=O)[C@H](Cc3ccncc3)NC(=O)[C@H](Cc3ccc(OCC(=O)O)cc3)NC(=O)CSC[C@@H](C(=O)N[C@@H](CCCN)C(=O)NCCOCCOCC(=O)NCCCCCCCCCCC(=O)O)NC(=O)[C@H]([C@@H](C)O)NC(=O)[C@H](C(C)C)NC(=O)[C@H](CC3CCCCC3)NC(=O)[C@H](CC(N)=O)NC(=O)[C@@H](CC(C)C)NC(=O)[C@H](C)N(C)C(=O)[C@H](Cc3ccc(OCC(=O)O)cc3)NC(=O)[C@H](Cc3ccc(-c4ccccc4)cc3)NC(=O)[C@H](Cc3ccc(OCC(=O)O)cc3)NC2=O)c1 [Example 1358] ({CH2CO}-Y(Carboxymethyl)[4Pal]D[Phe(3-Me)]Y(Carboxymethyl)[Bip]Y(Carboxymethyl)[NMeA][dL]N[Cha]VTC[Orn][AEEA][Aun]-OH; thioether N-14)
0.0232 | Cc1cccc(C[C@@H]2NC(=O)[C@H](CC(=O)O)NC(=O)[C@H](Cc3ccncc3)NC(=O)[C@H](Cc3ccc(OCC(=O)O)cc3)NC(=O)CSC[C@@H](C(=O)N[C@@H](CCN)C(=O)NCCOCCOCC(=O)NCCCCCCCCCCC(=O)O)NC(=O)[C@H](CCCN)NC(=O)[C@H](C(C)C)NC(=O)[C@H](CC3CCCCC3)NC(=O)[C@H](CC(N)=O)NC(=O)[C@@H](CC(C)C)NC(=O)[C@H](C)N(C)C(=O)[C@H](Cc3ccc(OCC(=O)O)cc3)NC(=O)[C@H](Cc3ccc(-c4ccccc4)cc3)NC(=O)[C@H](Cc3ccc(OCC(=O)O)cc3)NC2=O)c1 [Example 1359] ({CH2CO}-Y(Carboxymethyl)[4Pal]D[Phe(3-Me)]Y(Carboxymethyl)[Bip]Y(Carboxymethyl)[NMeA][dL]N[Cha]V[Orn]C[Dab][AEEA][Aun]-OH; thioether N-14)
0.0086 | Cc1cccc(C[C@@H]2NC(=O)[C@H](CC(=O)O)NC(=O)[C@H](Cc3ccncc3)NC(=O)[C@H](Cc3ccc(OCC(=O)O)cc3)NC(=O)CSC[C@@H](C(=O)N[C@@H](CCN)C(=O)NCCOCCOCC(=O)NCCCCCCCCCCC(=O)O)NC(=O)[C@H]([C@@H](C)O)NC(=O)[C@H](C(C)C)NC(=O)[C@H](CC3CCCCC3)NC(=O)[C@H](CCN)NC(=O)[C@@H](CC(C)C)NC(=O)[C@H](C)N(C)C(=O)[C@H](Cc3ccc(OCC(=O)O)cc3)NC(=O)[C@H](Cc3ccc(-c4ccccc4)cc3)NC(=O)[C@H](Cc3ccc(OCC(=O)O)cc3)NC2=O)c1 [Example 1360] ({CH2CO}-Y(Carboxymethyl)[4Pal]D[Phe(3-Me)]Y(Carboxymethyl)[Bip]Y(Carboxymethyl)[NMeA][dL][Dab][Cha]VTC[Dab][AEEA][Aun]-OH; thioether N-14)
0.0161 | Cc1cccc(C[C@@H]2NC(=O)[C@H](CC(=O)O)NC(=O)[C@H](Cc3ccncc3)NC(=O)[C@H](Cc3ccc(OCC(=O)O)cc3)NC(=O)CSC[C@@H](C(=O)N[C@@H](CCCN)C(=O)NCCOCCOCC(=O)NCCCCCCCCCCC(=O)O)NC(=O)[C@H]([C@@H](C)O)NC(=O)[C@H](C(C)C)NC(=O)[C@H](CC3CCCCC3)NC(=O)[C@H](CCN)NC(=O)[C@@H](CC(C)C)NC(=O)[C@H](C)N(C)C(=O)[C@H](Cc3ccc(OCC(=O)O)cc3)NC(=O)[C@H](Cc3ccc(-c4ccccc4)cc3)NC(=O)[C@H](Cc3ccc(OCC(=O)O)cc3)NC2=O)c1 [Example 1361] ({CH2CO}-Y(Carboxymethyl)[4Pal]D[Phe(3-Me)]Y(Carboxymethyl)[Bip]Y(Carboxymethyl)[NMeA][dL][Dab][Cha]VTC[Orn][AEEA][Aun]-OH; thioether N-14)
0.0251 | Cc1cccc(C[C@@H]2NC(=O)[C@H](CC(=O)O)NC(=O)[C@H](Cc3ccc(OCC(=O)O)cc3)NC(=O)[C@H]([C@@H](C)O)NC(=O)CSC[C@@H](C(=O)N[C@@H](CCN)C(=O)NCCOCCOCC(=O)NCCCCCCCCCCC(=O)O)NC(=O)[C@H]([C@@H](C)O)NC(=O)[C@H](C(C)C)NC(=O)[C@H](CC3CCCCC3)NC(=O)[C@H](CC(N)=O)NC(=O)[C@@H](CC(C)C)NC(=O)[C@H](C)N(C)C(=O)[C@H](Cc3ccc(OCC(=O)O)cc3)NC(=O)[C@H](Cc3ccc(-c4ccccc4)cc3)NC(=O)[C@H](Cc3ccc(OCC(=O)O)cc3)NC2=O)c1 [Example 1362] ({CH2CO}-TY(Carboxymethyl)D[Phe(3-Me)]Y(Carboxymethyl)[Bip]Y(Carboxymethyl)[NMeA][dL]N[Cha]VTC[Dab][AEEA][Aun]-OH; thioether N-14)

Reference: US20260070945A1, “MACROCYCLIC IMMUNOMODULATORS” (Bristol-Myers Squibb Company, priority 2022, published 2026)
